Reference: ChEMBL document CHEMBL5380863 (J Med Chem, 2023)
Values belong to the compound of their own block, whether it stands above or below them.

Experiments:
HL-60 = test: cells; format: functional, cell-based; conditions: Homo sapiens, HL-60, 72 h
K562 = test: cells; format: functional, cell-based; conditions: Homo sapiens, K562, 72 h
A549 = test: cells; format: functional, cell-based; conditions: Homo sapiens, A549, 72 h
MCF7 = test: cells; format: functional, cell-based; conditions: Homo sapiens, MCF7, 72 h
PC-3 = test: cells; format: functional, cell-based; conditions: Homo sapiens, PC-3, 72 h
HeLa = test: cells; format: functional, cell-based; conditions: Homo sapiens, 72 h
HEL = test: cells; format: functional, cell-based; conditions: Homo sapiens, 72 h
in vivo [1] = conditions: Sprague-Dawley, rat, po, 15 mg/kg
in vivo [2] = conditions: Sprague-Dawley, rat, po, 15 mg/kg; remark: listed apart in the source
Histone deacetylase 5 = Histone deacetylase 5 (Homo sapiens, UniProt Q9UQL6)
[3] = target: T1, Tyrosine-protein kinase JAK1 (Homo sapiens, UniProt P23458)
T1 sequence (P23458 whole entry): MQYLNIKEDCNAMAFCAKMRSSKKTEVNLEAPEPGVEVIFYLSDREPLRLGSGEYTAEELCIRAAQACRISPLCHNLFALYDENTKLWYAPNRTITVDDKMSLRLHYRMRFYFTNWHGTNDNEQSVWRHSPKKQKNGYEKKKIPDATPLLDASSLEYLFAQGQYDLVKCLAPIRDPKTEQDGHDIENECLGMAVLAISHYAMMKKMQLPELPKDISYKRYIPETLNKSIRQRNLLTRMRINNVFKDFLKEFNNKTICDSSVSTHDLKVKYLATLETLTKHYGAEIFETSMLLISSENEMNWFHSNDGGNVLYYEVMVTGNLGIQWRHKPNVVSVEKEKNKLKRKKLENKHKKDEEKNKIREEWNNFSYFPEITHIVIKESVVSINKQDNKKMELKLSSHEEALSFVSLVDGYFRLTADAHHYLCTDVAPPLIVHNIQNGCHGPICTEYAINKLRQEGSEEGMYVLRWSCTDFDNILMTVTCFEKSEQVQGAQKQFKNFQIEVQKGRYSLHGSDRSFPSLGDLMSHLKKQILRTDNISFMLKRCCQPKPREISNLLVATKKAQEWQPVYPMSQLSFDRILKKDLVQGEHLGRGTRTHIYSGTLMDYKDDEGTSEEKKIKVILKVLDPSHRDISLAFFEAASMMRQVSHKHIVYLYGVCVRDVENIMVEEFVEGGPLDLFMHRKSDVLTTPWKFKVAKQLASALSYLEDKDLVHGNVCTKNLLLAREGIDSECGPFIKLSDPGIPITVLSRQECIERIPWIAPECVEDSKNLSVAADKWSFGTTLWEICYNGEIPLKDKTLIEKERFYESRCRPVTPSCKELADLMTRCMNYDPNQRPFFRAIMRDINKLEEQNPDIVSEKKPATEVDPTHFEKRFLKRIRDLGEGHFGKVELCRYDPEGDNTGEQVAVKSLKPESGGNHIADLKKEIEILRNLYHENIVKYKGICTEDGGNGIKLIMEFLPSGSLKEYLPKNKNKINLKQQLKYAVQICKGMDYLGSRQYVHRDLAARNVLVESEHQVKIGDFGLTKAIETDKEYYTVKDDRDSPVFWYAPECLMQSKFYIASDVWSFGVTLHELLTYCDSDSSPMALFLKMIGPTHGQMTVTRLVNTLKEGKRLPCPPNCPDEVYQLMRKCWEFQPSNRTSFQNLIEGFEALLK

Histone deacetylase 1 = Histone deacetylase 1 (Homo sapiens, UniProt Q13547); format: cell-based, HeLa
Histone deacetylase 1, sequence (Q13547 whole entry): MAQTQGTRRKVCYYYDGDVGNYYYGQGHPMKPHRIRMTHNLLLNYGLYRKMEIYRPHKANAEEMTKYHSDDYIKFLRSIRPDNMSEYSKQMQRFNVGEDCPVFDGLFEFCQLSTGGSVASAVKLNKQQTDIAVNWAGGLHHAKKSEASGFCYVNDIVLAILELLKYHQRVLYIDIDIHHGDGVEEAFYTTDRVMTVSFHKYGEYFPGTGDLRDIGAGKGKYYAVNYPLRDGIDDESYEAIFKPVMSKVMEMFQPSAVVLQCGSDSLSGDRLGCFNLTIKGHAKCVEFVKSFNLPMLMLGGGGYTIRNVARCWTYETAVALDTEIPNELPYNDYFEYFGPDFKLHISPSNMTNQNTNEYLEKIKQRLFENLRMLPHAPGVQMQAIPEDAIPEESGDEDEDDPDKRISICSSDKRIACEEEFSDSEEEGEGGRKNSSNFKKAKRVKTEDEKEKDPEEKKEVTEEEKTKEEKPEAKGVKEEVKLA

[4] = target: Tyrosine-protein kinase Fyn (Homo sapiens) (UniProt P06241); conditions: dose 500.0 nM
[5] = target: Tyrosine-protein kinase JAK3 (Homo sapiens, UniProt P52333)
[6] = target: T2, Tyrosine-protein kinase JAK2 (Homo sapiens, UniProt O60674); conditions: dose 500.0 nM
T2 sequence (O60674 whole entry): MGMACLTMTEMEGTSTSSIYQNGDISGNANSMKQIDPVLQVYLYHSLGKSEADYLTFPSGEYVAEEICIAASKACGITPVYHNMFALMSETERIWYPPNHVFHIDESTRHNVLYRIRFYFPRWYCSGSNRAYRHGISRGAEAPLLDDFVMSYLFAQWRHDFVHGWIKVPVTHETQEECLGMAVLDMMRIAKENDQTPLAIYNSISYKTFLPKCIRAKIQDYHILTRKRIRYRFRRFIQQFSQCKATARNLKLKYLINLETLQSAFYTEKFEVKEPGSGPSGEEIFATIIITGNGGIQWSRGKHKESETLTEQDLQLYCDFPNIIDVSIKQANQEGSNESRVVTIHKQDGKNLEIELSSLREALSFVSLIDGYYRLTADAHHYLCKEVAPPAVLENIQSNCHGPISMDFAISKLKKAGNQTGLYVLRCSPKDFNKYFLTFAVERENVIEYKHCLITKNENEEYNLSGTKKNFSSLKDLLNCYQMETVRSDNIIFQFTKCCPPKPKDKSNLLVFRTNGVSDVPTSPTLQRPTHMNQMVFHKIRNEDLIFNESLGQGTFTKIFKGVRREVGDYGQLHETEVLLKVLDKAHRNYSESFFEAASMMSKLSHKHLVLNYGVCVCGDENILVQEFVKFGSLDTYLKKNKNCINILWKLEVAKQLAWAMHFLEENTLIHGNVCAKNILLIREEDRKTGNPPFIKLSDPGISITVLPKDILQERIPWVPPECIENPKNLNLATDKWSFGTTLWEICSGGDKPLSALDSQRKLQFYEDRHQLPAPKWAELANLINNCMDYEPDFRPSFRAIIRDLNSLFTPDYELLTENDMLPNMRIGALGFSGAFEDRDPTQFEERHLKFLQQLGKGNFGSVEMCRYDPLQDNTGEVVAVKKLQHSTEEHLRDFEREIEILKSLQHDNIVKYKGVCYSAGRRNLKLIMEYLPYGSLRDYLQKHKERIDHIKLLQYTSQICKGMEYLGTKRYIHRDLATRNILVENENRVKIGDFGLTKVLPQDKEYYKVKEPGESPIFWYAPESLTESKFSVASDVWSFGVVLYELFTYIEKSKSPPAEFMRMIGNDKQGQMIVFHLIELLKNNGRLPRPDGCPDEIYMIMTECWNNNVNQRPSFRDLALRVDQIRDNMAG

Histone deacetylase 2 = Histone deacetylase 2 (Homo sapiens, UniProt Q92769)
Histone deacetylase 2, sequence (Q92769 whole entry): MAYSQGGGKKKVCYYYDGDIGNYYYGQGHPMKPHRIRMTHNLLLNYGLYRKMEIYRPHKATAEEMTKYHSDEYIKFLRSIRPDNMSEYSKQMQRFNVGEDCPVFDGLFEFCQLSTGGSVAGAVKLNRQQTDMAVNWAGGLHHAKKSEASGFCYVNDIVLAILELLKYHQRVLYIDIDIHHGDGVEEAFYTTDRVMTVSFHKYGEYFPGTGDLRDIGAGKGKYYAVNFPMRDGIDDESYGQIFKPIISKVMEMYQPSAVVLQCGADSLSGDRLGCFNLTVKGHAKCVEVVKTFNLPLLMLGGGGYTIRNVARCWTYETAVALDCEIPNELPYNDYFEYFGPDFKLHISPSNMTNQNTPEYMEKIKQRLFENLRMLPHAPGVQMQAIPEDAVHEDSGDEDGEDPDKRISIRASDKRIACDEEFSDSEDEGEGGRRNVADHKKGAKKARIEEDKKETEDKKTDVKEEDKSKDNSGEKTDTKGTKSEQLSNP

Histone deacetylase 9 = Histone deacetylase 9 (Homo sapiens, UniProt Q9UKV0)
in vivo [7] = conditions: Sprague-Dawley, rat, po, 15 mg/kg; remark: listed apart in the source
in vitro [8] = conditions: Sprague-Dawley, rat, plasma
in vivo [9] = conditions: Sprague-Dawley, rat, iv, 3 mg/kg
[10] = target: Muscle, skeletal receptor tyrosine-protein kinase (Homo sapiens) (UniProt O15146); conditions: dose 500.0 nM
Muscle, skeletal receptor tyrosine-protein kinase (Homo sapiens), sequence (O15146 whole entry): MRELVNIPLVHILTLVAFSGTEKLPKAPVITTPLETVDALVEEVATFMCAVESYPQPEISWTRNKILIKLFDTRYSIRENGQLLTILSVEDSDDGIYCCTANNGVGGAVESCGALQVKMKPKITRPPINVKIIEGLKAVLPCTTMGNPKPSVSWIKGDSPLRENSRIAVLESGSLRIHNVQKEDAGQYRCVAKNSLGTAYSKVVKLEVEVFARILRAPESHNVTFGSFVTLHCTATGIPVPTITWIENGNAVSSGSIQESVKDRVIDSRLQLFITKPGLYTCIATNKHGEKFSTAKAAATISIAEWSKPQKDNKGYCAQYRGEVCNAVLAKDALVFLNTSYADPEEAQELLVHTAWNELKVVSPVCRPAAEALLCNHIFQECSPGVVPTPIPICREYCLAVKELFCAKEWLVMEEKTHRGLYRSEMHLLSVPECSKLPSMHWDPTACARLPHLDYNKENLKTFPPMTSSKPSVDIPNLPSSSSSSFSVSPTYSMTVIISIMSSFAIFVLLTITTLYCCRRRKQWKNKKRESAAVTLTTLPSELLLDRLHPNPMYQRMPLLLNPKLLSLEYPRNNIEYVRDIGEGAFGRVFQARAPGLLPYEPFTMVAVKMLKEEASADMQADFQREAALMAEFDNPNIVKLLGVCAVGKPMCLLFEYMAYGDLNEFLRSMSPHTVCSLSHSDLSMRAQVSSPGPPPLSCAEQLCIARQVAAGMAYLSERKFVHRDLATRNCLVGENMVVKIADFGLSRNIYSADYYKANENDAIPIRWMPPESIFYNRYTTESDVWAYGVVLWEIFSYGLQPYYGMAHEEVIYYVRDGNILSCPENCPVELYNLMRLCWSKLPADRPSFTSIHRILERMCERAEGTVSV

in vivo [11] = conditions: Sprague-Dawley, rat, po, 15 mg/kg; remark: listed apart in the source
Histone deacetylase 11 = Histone deacetylase 11 (Homo sapiens, UniProt Q96DB2)
Histone deacetylase 11, sequence (Q96DB2 whole entry): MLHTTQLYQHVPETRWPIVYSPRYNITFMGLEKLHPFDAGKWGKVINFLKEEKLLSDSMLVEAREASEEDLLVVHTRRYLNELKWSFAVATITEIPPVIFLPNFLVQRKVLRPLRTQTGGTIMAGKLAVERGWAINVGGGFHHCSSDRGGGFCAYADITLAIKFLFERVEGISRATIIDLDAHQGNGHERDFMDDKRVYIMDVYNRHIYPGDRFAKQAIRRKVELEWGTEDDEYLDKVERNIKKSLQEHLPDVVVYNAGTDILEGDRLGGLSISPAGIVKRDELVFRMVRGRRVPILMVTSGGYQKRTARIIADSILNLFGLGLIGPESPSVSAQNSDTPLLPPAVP

in vivo [12] = conditions: Sprague-Dawley, rat, iv, 3 mg/kg; remark: listed apart in the source
in vivo [13] = conditions: Sprague-Dawley, rat, po, 15 mg/kg; remark: listed apart in the source
in vivo [14] = conditions: Sprague-Dawley, rat, iv, 3 mg/kg; remark: listed apart in the source
in vitro [15] = conditions: Sprague-Dawley, rat, plasma; remark: listed apart in the source
[16] = target: T1, Tyrosine-protein kinase JAK1; conditions: dose 500.0 nM
Histone deacetylase 7 = Histone deacetylase 7 (Homo sapiens, UniProt Q8WUI4)
Histone deacetylase 8 = Histone deacetylase 8 (Homo sapiens, UniProt Q9BY41)
Histone deacetylase 8, sequence (Q9BY41 whole entry): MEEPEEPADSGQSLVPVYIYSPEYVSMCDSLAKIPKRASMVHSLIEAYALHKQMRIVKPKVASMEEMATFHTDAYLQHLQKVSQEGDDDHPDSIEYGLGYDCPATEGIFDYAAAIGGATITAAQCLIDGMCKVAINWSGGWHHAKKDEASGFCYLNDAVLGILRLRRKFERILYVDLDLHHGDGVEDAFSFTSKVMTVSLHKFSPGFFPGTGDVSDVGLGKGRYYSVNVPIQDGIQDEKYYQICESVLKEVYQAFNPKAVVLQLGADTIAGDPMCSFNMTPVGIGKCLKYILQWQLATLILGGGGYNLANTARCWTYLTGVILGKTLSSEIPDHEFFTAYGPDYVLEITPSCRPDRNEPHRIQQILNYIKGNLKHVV

Histone deacetylase = format: cell-based, Homo sapiens; conditions: hela
[17] = target: Protein deacetylase HDAC6 (Homo sapiens, UniProt Q9UBN7)
[18] = target: Non-receptor tyrosine-protein kinase TYK2 (Homo sapiens, UniProt P29597)
Histone deacetylase 3 = Histone deacetylase 3 (Homo sapiens, UniProt O15379)
in vivo [19] = conditions: Sprague-Dawley, rat, iv, 3 mg/kg; remark: listed apart in the source
[20] = target: Activated CDC42 kinase 1 (Homo sapiens) (UniProt Q07912); conditions: dose 500.0 nM
Histone deacetylase 4 = Histone deacetylase 4 (Homo sapiens, UniProt P56524)
[21] = target: Polyamine deacetylase HDAC10 (Homo sapiens, UniProt Q969S8)
in vivo [22] = conditions: Sprague-Dawley, rat, po, 15 mg/kg; remark: listed apart in the source
[23] = rat, in vivo, po, 15 mg/kg, 24 h
in vivo [24] = conditions: Sprague-Dawley, rat, po, 15 mg/kg; remark: listed apart in the source
in vivo [25] = conditions: Sprague-Dawley, rat, iv, 3 mg/kg; remark: listed apart in the source
[26] = target: T2, Tyrosine-protein kinase JAK2

SMILES: Cc1cnc(Nc2ccc(OCCCCCCC(=O)NO)c(Br)c2)nc1Nc1cccc(S(=O)(=O)NC(C)(C)C)c1
IC50 (HL-60): 12000 nM | IC50 (K562): 2070 nM | IC50 (A549): 2160 nM | IC50 (MCF7): 6950 nM | IC50 (PC-3): 3870 nM | IC50 (HeLa): 11900 nM | IC50 (HEL): 730 nM

SMILES: Cc1cnc(Nc2ccc(OCCCC(=O)NO)cc2)nc1Nc1cccc(S(=O)(=O)NC(C)(C)C)c1
IC50 [26]: 12.3 nM

SMILES: Cc1cnc(Nc2ccc(OCCCCCCC(=O)NO)c(Cl)c2)nc1Nc1cccc(S(=O)(=O)NC(C)(C)C)c1
IC50 (HL-60): 7130 nM | IC50 (K562): 4700 nM | IC50 (A549): 1430 nM | IC50 (MCF7): 6060 nM | IC50 (PC-3): 4060 nM | IC50 (HeLa): 11500 nM | IC50 (HEL): 810 nM

SMILES: Cc1cnc(Nc2ccc(OCC(=O)NO)cc2)nc1Nc1cccc(S(=O)(=O)NC(C)(C)C)c1
IC50 [26]: 4.33 nM

SMILES: Cc1cnc(Nc2ccc(OCCCCCCC(=O)NO)c(C(F)(F)F)c2)nc1Nc1cccc(S(=O)(=O)NC(C)(C)C)c1
IC50 (HL-60): 11100 nM | IC50 (K562): 5900 nM | IC50 (A549): 2240 nM | IC50 (MCF7): 8720 nM | IC50 (PC-3): 4870 nM | IC50 (HeLa): 7480 nM | IC50 (HEL): 1080 nM

SMILES: Cc1cnc(Nc2ccc(OCCCCCC(=O)NO)c(C(F)(F)F)c2)nc1Nc1cccc(S(=O)(=O)NC(C)(C)C)c1
IC50 (HL-60): 6850 nM | IC50 (K562): 3450 nM | IC50 (A549): 2910 nM | IC50 (MCF7): 2930 nM | IC50 (PC-3): 2870 nM | IC50 (HeLa): 5100 nM | IC50 (HEL): 2440 nM

Results, then the compound that gave them:

IC50 (HL-60): 6500 nM | IC50 (K562): 7160 nM | IC50 (A549): 2950 nM | IC50 (MCF7): 9060 nM | IC50 (PC-3): 4940 nM | IC50 (HeLa): 10900 nM | IC50 (HEL): 1660 nM
SMILES: Cc1cnc(Nc2ccc(OCCCCCCCC(=O)NO)cc2)nc1Nc1cccc(S(=O)(=O)NC(C)(C)C)c1

Cmax at 24 h (in vivo [1]): 93.3 ng/mL | IC50 (HL-60): 2580 nM | half-life at 24 h (in vivo [2]): 2.08 h | IC50 (Histone deacetylase 5): > 10000 nM | IC50 (K562): 1870 nM | IC50 [3]: 27.1 nM | IC50 (Histone deacetylase 1): 0.34 nM | inhibition [4]: > 95% | IC50 (A549): 730 nM | IC50 (MCF7): 1830 nM | IC50 [5]: 595 nM | inhibition [6]: > 95% | IC50 (Histone deacetylase 2): 303 nM | IC50 (Histone deacetylase 9): > 10000 nM | AUC(0-t) at 24 h (in vivo [7]): 745 ng·h/mL | half-life at 22 h (in vitro [8]): 11.1 h | half-life at 24 h (in vivo [9]): 7.68 min | inhibition [10]: 70% | IC50 (PC-3): 2520 nM | Tmax at 24 h (in vivo [11]): 2.91 h | IC50 (HeLa): 2880 nM | IC50 (Histone deacetylase 11): 724 nM | MRT at 24 h (in vivo [12]): 0.185 h | bioavailability at 24 h (in vivo [13]): 22.7% | IC50 (HEL): 330 nM | Vd at 24 h (in vivo [14]): 0.845 L/kg | AUC(0-t) at 22 h (in vitro [15]): 217000 ng·h/mL | inhibition [16]: 80% | IC50 (Histone deacetylase 7): > 10000 nM | IC50 (Histone deacetylase 8): > 10000 nM | IC50 (Histone deacetylase): 0.17 nM | IC50 [17]: 4.44 nM | IC50 [18]: 414 nM | IC50 (Histone deacetylase 3): 58.7 nM | AUC(0-t) at 24 h (in vivo [19]): 656 ng·h/mL | inhibition [20]: 70% | IC50 (Histone deacetylase 4): > 10000 nM | IC50 [21]: 116 nM | CL/F at 24 h (in vivo [22]): 76 mL/min/kg | Vd [23]: 13.708 L/kg | MRT at 24 h (in vivo [24]): 6.02 h | clearance at 24 h (in vivo [25]): 76.2 mL/min/kg
SMILES: Cc1cnc(Nc2ccc(OCCCCCCC(=O)NO)cc2)nc1Nc1cccc(S(=O)(=O)NC(C)(C)C)c1

IC50 (HL-60): 4410 nM | IC50 (K562): 5490 nM | IC50 (A549): 1490 nM | IC50 (MCF7): 4680 nM | IC50 (PC-3): 3670 nM | IC50 (HeLa): 7270 nM | IC50 (HEL): 1650 nM
SMILES: COc1cc(Nc2ncc(C)c(Nc3cccc(S(=O)(=O)NC(C)(C)C)c3)n2)ccc1OCCCCCCC(=O)NO

IC50 (HL-60): 2580 nM | IC50 (K562): 4220 nM | IC50 (A549): 2330 nM | IC50 (MCF7): 3220 nM | IC50 (PC-3): 2760 nM | IC50 (HeLa): 3960 nM | IC50 (HEL): 2520 nM
SMILES: Cc1cnc(Nc2ccc(OCCCCCC(=O)NO)cc2)nc1Nc1cccc(S(=O)(=O)NC(C)(C)C)c1

IC50 (HL-60): 4910 nM | IC50 (K562): 8850 nM | IC50 (A549): 3080 nM | IC50 (MCF7): 8930 nM | IC50 (PC-3): 4920 nM | IC50 (HeLa): > 50000 nM | IC50 (HEL): 1730 nM
SMILES: Cc1cc(Nc2ncc(C)c(Nc3cccc(S(=O)(=O)NC(C)(C)C)c3)n2)ccc1OCCCCCCC(=O)NO

Cmax at 24 h (in vivo [1]): 79.1 ng/mL | IC50 (HL-60): 3370 nM | half-life at 24 h (in vivo [2]): 1.81 h | IC50 (Histone deacetylase 5): > 10000 nM | IC50 (K562): 1220 nM | IC50 [3]: 41 nM | IC50 (Histone deacetylase 1): 0.43 nM | inhibition [4]: 80% | IC50 (A549): 1270 nM | IC50 (MCF7): 1980 nM | IC50 [5]: 954 nM | IC50 (Histone deacetylase 2): 299 nM | IC50 (Histone deacetylase 9): > 10000 nM | AUC(0-t) at 24 h (in vivo [7]): 549 ng·h/mL | half-life at 22 h (in vitro [8]): 8.49 h | half-life at 24 h (in vivo [9]): 6.72 min | inhibition [10]: 80% | IC50 (PC-3): 3040 nM | Tmax at 24 h (in vivo [11]): 2.55 h | IC50 (HeLa): 3250 nM | IC50 (Histone deacetylase 11): 931 nM | MRT at 24 h (in vivo [12]): 0.161 h | bioavailability at 24 h (in vivo [13]): 21.6% | IC50 (HEL): 240 nM | Vd at 24 h (in vivo [14]): 0.951 L/kg | AUC(0-t) at 22 h (in vitro [15]): 169000 ng·h/mL | inhibition [16]: 80% | IC50 (Histone deacetylase 7): > 10000 nM | IC50 (Histone deacetylase 8): > 10000 nM | IC50 (Histone deacetylase): 0.2 nM | IC50 [17]: 6.98 nM | IC50 [18]: 780 nM | IC50 (Histone deacetylase 3): 73.9 nM | AUC(0-t) at 24 h (in vivo [19]): 508 ng·h/mL | inhibition [20]: 70% | IC50 (Histone deacetylase 4): > 10000 nM | IC50 [21]: 127 nM | CL/F at 24 h (in vivo [22]): 98.3 mL/min/kg | Vd [23]: 15.411 L/kg | MRT at 24 h (in vivo [24]): 5.11 h | clearance at 24 h (in vivo [25]): 98.3 mL/min/kg
SMILES: Cc1cnc(Nc2ccc(OCCCCCCC(=O)NO)c(F)c2)nc1Nc1cccc(S(=O)(=O)NC(C)(C)C)c1

IC50 (HL-60): 6700 nM | IC50 (K562): 4370 nM | IC50 (A549): 2030 nM | IC50 (MCF7): 4840 nM | IC50 (PC-3): 6290 nM | IC50 (HeLa): 7230 nM | IC50 (HEL): 1270 nM
SMILES: Cc1cnc(Nc2ccc(OCCCCCC(=O)NO)c(Cl)c2)nc1Nc1cccc(S(=O)(=O)NC(C)(C)C)c1
